The values below come from US8580784B2, “Method for treating a disease related to the glucocorticoid receptor” (Santen Pharmaceutical Co., Ltd., priority 2006, dated 2013).

The target of this assay is T1, Recombinant human GR (Homo sapiens, UniProt P04150).
T1 construct: purchased Invitrogen P2816
T1 sequence (P04150 1-777): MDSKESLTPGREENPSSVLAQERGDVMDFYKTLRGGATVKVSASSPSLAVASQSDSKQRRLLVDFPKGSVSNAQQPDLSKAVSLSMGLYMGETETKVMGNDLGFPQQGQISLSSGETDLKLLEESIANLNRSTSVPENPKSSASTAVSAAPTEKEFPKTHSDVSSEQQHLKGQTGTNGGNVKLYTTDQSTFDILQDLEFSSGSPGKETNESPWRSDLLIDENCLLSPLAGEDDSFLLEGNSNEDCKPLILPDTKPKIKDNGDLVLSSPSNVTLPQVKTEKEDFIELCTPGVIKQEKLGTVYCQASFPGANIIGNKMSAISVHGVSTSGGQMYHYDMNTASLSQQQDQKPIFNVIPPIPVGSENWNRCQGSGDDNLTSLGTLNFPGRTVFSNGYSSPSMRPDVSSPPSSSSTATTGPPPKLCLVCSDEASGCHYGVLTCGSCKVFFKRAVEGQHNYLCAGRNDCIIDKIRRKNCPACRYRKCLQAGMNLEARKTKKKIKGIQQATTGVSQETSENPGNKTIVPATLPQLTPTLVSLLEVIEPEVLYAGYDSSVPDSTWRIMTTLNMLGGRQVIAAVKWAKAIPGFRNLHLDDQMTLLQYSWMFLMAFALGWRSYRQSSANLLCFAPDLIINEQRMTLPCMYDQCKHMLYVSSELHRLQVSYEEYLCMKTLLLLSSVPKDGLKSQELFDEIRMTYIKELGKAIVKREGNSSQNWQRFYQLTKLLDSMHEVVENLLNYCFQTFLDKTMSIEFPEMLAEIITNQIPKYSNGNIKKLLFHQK
Description: Evaluation test for binding activity to glucocorticoid receptor: receptor competitor assay by fluorescence polarization (Invitrogen GR competitor assay kit, cat No. P2816). The settings on record: 20 μM test compound solution, 10 μL per well plus 5 μL 4×GS1 and 5 μL 4×GR solution; room temperature 2 to 4 hours; a ratio of 100% or more is indicated by 100%. The method, then:
A detailed explanation of this matter will be described in the section of “Pharmacological Test” in Examples described below. In order to find the usefulness of the present compound as a pharmaceutical, a glucocorticoid receptor competitor assay was carried out by a fluorescence polarization method by using a glucocorticoid receptor competitor assay kit (manufactured by Invitrogen, cat No. P2816) to study the glucocorticoid receptor binding activity of the present compound.
1. Evaluation Test for Binding Activity to Glucocorticoid Receptor (hereinafter referred to as “GR”)
In order to evaluate a binding activity to GR, a receptor competitor assay was carried out by a fluorescence polarization method. In the assay, a GR competitor assay kit (manufactured by Invitrogen, cat No. P2816) was used, and a procedure was carried out according to the protocol attached to the kit. Hereinafter, the specific method will be described.
(Preparation of Reagents)
GR screening buffer: A buffer containing 10 mM potassium phosphate (pH 7.4), 20 mM sodium molybdate (Na2MoO4), 0.1 mM ethylene diamine tetraacetic acid (EDTA), 5 mM dithiothreitol (DTT), 0.1 mM stabilizing peptide and 2% dimethylsulfoxide was prepared.
4×GS1 solution: Fluormone™ GS1, which is a fluorescent glucocorticoid ligand, was diluted with GR screening buffer, whereby a 4 nM solution was prepared.
4×GR solution: Recombinant human GR was diluted with GR screening buffer, whereby a 16 nM solution was prepared.
(Preparation of Test Compound Solution)
After a test compound was dissolved in dimethylsulfoxide, the resulting solution was diluted with GR screening buffer, whereby a 20 μM test compound solution was prepared.
(Test Method and Measurement Method)
1) The test compound solution was added in an amount of 10 μL into each well of a 384-well plate, and then, 4×GS1 solution and 4×GR solution were added in an amount of 5 μL into each well, respectively.
2) The plate was incubated in a dark place at room temperature for 2 to 4 hours.
3) By using a multimode plate reader, Analyst™ HT (manufactured by LJL Biosystems), fluorescence polarization of each well was measured. As the blank, a well containing GR screening buffer in place of the test compound and 4×GS1 solution was used.
4) The same procedure as that in the above 1) to 3) was carried out except that GR screening buffer was used in place of the test compound solution, and the obtained result was taken as the negative control.
5) The same procedure as that in the above 1) to 3) was carried out except that 2 mM dexamethasone was used in place of the test compound solution, and the obtained result was taken as the positive control.
(Calculation Equation of GR Binding Ratio)
A GR binding ratio (%) was calculated from the following equation. GR binding ratio(%)=100×[1−(fluorescence polarization of test compound solution−fluorescence polarization of positive control solution)/(fluorescence polarization of negative control solution−fluorescence polarization of positive control solution)] (Test Results and Discussion)
(In general: Polarisation of emitted light reports the rotation of a fluorescent probe.)
Turning to `COc1ccccc1NCc1c(-c2ccc(OC(=O)c3ccncc3)cc2OC)ccc2c1C(C)=CC(C)(C)N2` [Compound 1-13, 5-(2-Methoxyphenylaminomethyl)-6-[2-methoxy-4-(pyridin-4-ylcarbonyloxy)phenyl]-2,2,4-trimethyl-1,2-dihydroquinoline], the inhibition at 20 µM (stock) turned out to be 100%.
Still for that read-out and setting: as for `COc1ccccc1NCc1c(-c2ccc(OC(=O)c3cscn3)cc2OC)ccc2c1C(C)=CC(C)(C)N2` [Compound 1-30, 5-(2-Methoxyphenylaminomethyl)-6-[2-methoxy-4-(thiazol-4-ylcarbonyloxy)phenyl]-2,2,4-trimethyl-1,2-dihydroquinoline], the figure is 94%; as for `COc1ccccc1NCc1c(-c2ccc(OC(=O)c3cccnc3C)cc2OC)ccc2c1C(C)=CC(C)(C)N2` [Compound 1-2, 6-[2-Methoxy-4-(2-methylpyridin-3-ylcarbonyloxy)phenyl]-5-(2-methoxyphenylaminomethyl)-2,2,4-trimethyl-1,2-dihydroquioline], 100%.
With `COc1ccccc1NCc1c(-c2ccc(OC(=O)c3ccccc3)cc2OC)ccc2c1C(C)=CC(C)(C)N2` [Compound 1-3, 6-(4-Benzoyloxy-2-methoxyphenyl)-5-(2-methoxyphenylaminomethyl)-2,2,4-trimethyl-1,2-dihydroquioline], the inhibition at 20 µM (stock) amounted to 95%.
On the same count and under the same terms, as for `COc1cc(OC(=O)N2CCOCC2)ccc1-c1ccc2c(c1CNc1cc(F)ccc1C)C(C)=CC(C)(C)N2` [Compound 1-45, 5-(5-Fluoro-2-methylphenylaminomethyl)-6-[2-methoxy-4-(morpholin-4-ylcarbonyloxy)phenyl]-2,2,4-trimethyl-1,2-dihydroquinoline], the figure is 100%; as for `COc1ccccc1NCc1c(-c2ccc(OS(C)(=O)=O)cc2OC)ccc2c1C(C)=CC(C)(C)N2` [Compound 2-5, 6-(2-Methoxy-4-methylsulfonyloxyphenyl)-5-(2-methoxyphenylaminomethyl)-2,2,4-trimethyl-1,2-dihydroquioline], 93%.
Turning to `COc1ccccc1NCc1c(-c2ccc(OS(=O)(=O)C3CC3)cc2OC)ccc2c1C(C)=CC(C)(C)N2` [Compound 2-7, 6-(4-Cyclopropylsulfonyloxy-2-methoxyphenyl)-5-(2-methoxyphenylaminomethyl)-2,2,4-trimethyl-1,2-dihydroquioline], the inhibition at 20 µM (stock) came out at 100%.
On the same count and under the same terms, as for `COc1ccccc1NCc1c(-c2ccc(OC(=O)c3ccsc3)cc2OC)ccc2c1C(C)=CC(C)(C)N2` [Compound 1-7, 5-(2-Methoxyphenylaminomethyl)-6-[2-methoxy-4-(thiophen-3-ylcarbonyloxy)phenyl]-2,2,4-trimethyl-1,2-dihydroquinoline], the figure is 95%.
On the same count and under the same terms, the same measure for `COc1ccccc1NCc1c(-c2ccc(OC(=O)c3ccoc3)cc2OC)ccc2c1C(C)=CC(C)(C)N2` [Compound 1-6, 6-[4-(Furan-3-ylcarbonyloxy)-2-methoxyphenyl]-5-(2-methoxyphenylaminomethyl)-2,2,4-trimethyl-1,2-dihydroquinoline]: 97%.
Same read-out and setting: the same measure for `COc1ccccc1NCc1c(-c2ccc(OC(=O)c3ccccc3F)cc2OC)ccc2c1C(C)=CC(C)(C)N2` [Compound 1-12, 6-[4-(2-Fluorobenzoyloxy)-2-methoxyphenyl]-5-(2-methoxyphenylaminomethyl)-2,2,4-trimethyl-1,2-dihydroquinoline]: 99%; for `COc1ccccc1NCc1c(-c2ccc(OC(=O)c3ccc(C)nc3)cc2OC)ccc2c1C(C)=CC(C)(C)N2` [Compound 1-31, 6-[2-Methoxy-4-(6-methylpyridin-3-ylcarbonyloxy)phenyl]-5-(2-methoxyphenylaminomethyl)-2,2,4-trimethyl-1,2-dihydroquinoline]: 92%.
For the compound `COc1ccccc1NCc1c(-c2ccc(OS(=O)(=O)C(C)C)cc2OC)ccc2c1C(C)=CC(C)(C)N2` [Compound 2-2, 6-(4-Isopropylsulfonyloxy-2-methoxyphenyl)-5-(2-methoxyphenylaminomethyl)-2,2,4-trimethyl-1,2-dihydroquioline], the inhibition at 20 µM (stock) is 100%.
Turning to `COc1ccccc1NCc1c(-c2ccc(OC(=O)C(C)C)cc2OC)ccc2c1C(C)=CC(C)(C)N2` [Compound 1-14, 6-(4-Isopropylcarbonyloxy-2-methoxyphenyl)-5-(2-methoxyphenylaminomethyl)-2,2,4-trimethyl-1,2-dihydroquinoline], the inhibition at 20 µM (stock) was determined as 99%.
Still for that read-out and setting: as for `COc1ccccc1NCc1c(-c2ccc(OC(=O)N3CCOCC3)cc2OC)ccc2c1C(C)=CC(C)(C)N2` [Compound 1-44, 6-[2-Methoxy-4-(morpholin-4-ylcarbonyloxy)phenyl]-5-(2-methoxyphenylaminomethyl)-2,2,4-trimethyl-1,2-dihydroquinoline], the figure is 96%; as for `COc1ccccc1NCc1c(-c2ccc(OS(=O)(=O)C3CCCC3)cc2OC)ccc2c1C(C)=CC(C)(C)N2` [Compound 2-10, 6-(4-Cyclopentylsulfonyloxy-2-methoxyphenyl)-5-(2-methoxyphenylaminomethyl)-2,2,4-trimethyl-1,2-dihydroquioline], 100%.
`COc1ccccc1NCc1c(-c2ccc(OC(=O)c3ccccc3Cl)cc2OC)ccc2c1C(C)=CC(C)(C)N2` [Compound 1-10, 6-[4-(2-Chlorobenzoyloxy)-2-methoxyphenyl]-5-(2-methoxyphenylaminomethyl)-2,2,4-trimethyl-1,2-dihydroquinoline]: the inhibition at 20 µM (stock) was found to be 93%.
On to `COc1cc(OC(=O)c2ccoc2)ccc1-c1ccc2c(c1CNc1cc(F)ccc1C)C(C)=CC(C)(C)N2` [Compound 1-33, 5-(5-Fluoro-2-methylphenylaminomethyl)-6-[4-(furan-3-ylcarbonyloxy)-2-methoxyphenyl]-2,2,4-trimethyl-1,2-dihydroquinoline], for which the inhibition at 20 µM (stock) turned out to be 100%.
The same measure, in the same setting: as for `COc1ccccc1NCc1c(-c2ccc(OC(=O)c3cccnc3OC)cc2OC)ccc2c1C(C)=CC(C)(C)N2` [Compound 1-32, 6-[2-Methoxy-4-(2-methoxypyridin-3-ylcarbonyloxy)phenyl]-5-(2-methoxyphenylaminomethyl)-2,2,4-trimethyl-1,2-dihydroquinoline], the figure is 90%.
With `CCCS(=O)(=O)Oc1ccc(-c2ccc3c(c2CNc2ccccc2OC)C(C)=CC(C)(C)N3)c(OC)c1` [Compound 2-1, 5-(2-Methoxyphenylaminomethyl)-6-(2-methoxy-4-propylsulfonyloxyphenyl)-2,2,4-trimethyl-1,2-dihydroquioline], the inhibition at 20 µM was 100%.
On to `COc1ccccc1NCc1c(-c2ccc(OC(=O)c3ccc(F)cc3)cc2OC)ccc2c1C(C)=CC(C)(C)N2` [Compound 1-23, 6-[4-(4-Fluorobenzoyloxy)-2-methoxyphenyl]-5-(2-methoxyphenylaminomethyl)-2,2,4-trimethyl-1,2-dihydroquinoline], for which the inhibition at 20 µM (stock) was 86%.

For orientation: inhibition means how much of the control response was suppressed.
